Measured values taken from the NIST ThermoML archive (doi:10.1016/j.fluid.2015.09.031).
Numbers after ± are expanded uncertainties.

Conditions: Liquid, Ebulliometric method (Recirculating still)

CC(C)CCl [1-chloro-2-methylpropane]
vapor or sublimation pressure (288.15 K): 13 ± 0.1 kPa | vapor or sublimation pressure (298.15 K): 20.35 ± 0.1 kPa | vapor or sublimation pressure (308.15 K): 30.45 ± 0.11 kPa

CCCCCl [1-chlorobutane]
vapor or sublimation pressure (288.15 K): 8.4 ± 0.1 kPa | vapor or sublimation pressure (298.15 K): 13.52 ± 0.1 kPa | vapor or sublimation pressure (308.15 K): 21.04 ± 0.1 kPa

CC(C)(C)Cl [2-chloro-2-methylpropane]
vapor or sublimation pressure (288.15 K): 26.42 ± 0.11 kPa | vapor or sublimation pressure (298.15 K): 40.13 ± 0.11 kPa | vapor or sublimation pressure (308.15 K): 59.52 ± 0.12 kPa

CCC(C)Cl (stereo not given) [2-chlorobutane]
vapor or sublimation pressure (288.15 K): 13.36 ± 0.1 kPa | vapor or sublimation pressure (298.15 K): 20.91 ± 0.1 kPa | vapor or sublimation pressure (308.15 K): 31.55 ± 0.11 kPa

CCCCCCC [heptane]
vapor or sublimation pressure (288.15 K): 3.63 ± 0.1 kPa | vapor or sublimation pressure (298.15 K): 6.095 ± 0.1 kPa | vapor or sublimation pressure (308.15 K): 9.865 ± 0.1 kPa
